Measured values taken from publication PMC3227451, “Structure-based development of novel sirtuin inhibitors” (Aging (Albany NY), 2011).
Like-named read-outs stand apart in the source and are kept apart here.

Tests used:
Format in all cases: biochemical
Sirt2 = molecular target: T1, Sirt2 (Homo sapiens, UniProt Q8IXJ6); assay: Fluor-de-Lys peptide deacetylation assay, Sirt2
T1 sequence (Q8IXJ6 34-356): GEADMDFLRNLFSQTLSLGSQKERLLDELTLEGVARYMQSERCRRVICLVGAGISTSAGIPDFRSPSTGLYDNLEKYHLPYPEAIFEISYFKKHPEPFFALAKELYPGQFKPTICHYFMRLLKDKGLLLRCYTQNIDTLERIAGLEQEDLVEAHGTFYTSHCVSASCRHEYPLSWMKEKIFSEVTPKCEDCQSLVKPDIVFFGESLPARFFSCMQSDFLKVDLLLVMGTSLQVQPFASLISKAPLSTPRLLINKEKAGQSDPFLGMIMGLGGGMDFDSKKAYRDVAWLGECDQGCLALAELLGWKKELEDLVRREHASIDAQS
Description: The Sirt2 construct was expressed in E. coli Rosetta2 cells (Merck) in LB/Ampicillin/Chloramphenicol medium. Cells were grown at 37 °C, and expression induced at an OD600 of 0.6-0.8 for 4 h with 0.5 mM IPTG. Harvested cells were resuspended in buffer A (50 mM Tris/HCl pH 7.8, 200 mM NaCl, 2 mM DTT), disrupted with a Sonifier, and cell debris removed by 40 min centrifugation at 4 °C, 18000 rpm in a HFA22.50 rotor. The supernatant was supplemented with 10 mM imidazole and incubated with Ni-NTA resin for 1 h at 4 °C. […] The protein was concentrated in an amicon unit (Millipore, Billerica, USA) and digested over night at 4 °C with TEV-protease. The protease was removed from cleaved Sirt2 by incubation with Ni-NTA resin for 1 h at 4 °C. The protein was concentrated, 1:5 diluted with 50 mM Tris/HCl, pH 7.8, and applied to a HiTrap Q anion exchange column (GE Healthcare) equilibrated with 50 mM Tris/HCl, pH 7.8, 50 mM NaCl, 2 mM DTT and eluted with a gradient (20 column volumes) to 50 mM Tris/HCl, pH 7.8, 1 M NaCl, 2 mM DTT. Sirt2 was then applied to a Superdex200 gel filtration column (GE Healthcare) equilibrated in 20 mM Tris/HCl, pH 7.8, 150 mM NaCl, 2 mM DTT. The eluted protein was analyzed by SDS-PAGE, re-concentrated, and shock-frozen in liquid nitrogen for storage at -80 °C.
(§1) The commercial Fluor-de-Lys (FdL) assay kits 1 and 2 (Biomol, Plymouth Meeting, USA) were used to test the deacetylase activity of the four Sirtuins. In both kits the substrate derived from p53 is composed of three amino acids, the acetyl lysine and a C-terminally attached fluorophor. For Sirt2 and 3, FdL-2 peptide (QPK(acetyl-K)) was used, and FdL-1 peptide (RHK(acetyl-K)) for Sirt5 and Sirt6. All tests were done with 0.1 mM of the respective FdL peptide and 0.5 mM NAD^+ as substrates.
(§2) NCI compound stocks were prepared by dissolving them in DMSO at a concentration of 5 mM. The initial screens with all 40 compounds contained 5 μl Sirtuin solution (Sirt2/3 0.1 mg/ml stock concentration; Sirt5/6 1 mg/ml), 1 μl of compound stock (resulting in a 100 μM end concentration), 15 μl FdL substrate, and assay buffer (supplied in the assay kit) to a total volume of 50 μl. As control reactions, peptide with either the compound (without Sirtuin) or with Sirtuin and DMSO instead of compound were measured. After starting the reactions by adding the FdL substrate, assays were incubated for 30 min at 37 °C. Subsequently, 50 μl of a 10 mg/ml trypsin stock (“Developer solution”) were added and the reactions were incubated for 45 min at room temperature. Fluorescence values were measured in a fluorometric plate reader with excitation at 360 nm and read out at 485 nm. Values were then corrected with the control reaction (same compound, but without Sirtuin).
(§3) All measurements shown are averages of duplicates (screen) or triplicates (dose-response curves), and representatives of at least two independent replications. Error bars indicate standard deviations.

Sirt3 = molecular target: T2, Sirt3 (Homo sapiens, UniProt Q9NTG7); assay: Fluor-de-Lys peptide deacetylation assay, Sirt3
T2 construct: Sirt3 residues 114-399; His-tag with linker comprising a TEV protease cleavage site (N); made in house; host or cells: E. coli
T2 sequence (Q9NTG7 114-399): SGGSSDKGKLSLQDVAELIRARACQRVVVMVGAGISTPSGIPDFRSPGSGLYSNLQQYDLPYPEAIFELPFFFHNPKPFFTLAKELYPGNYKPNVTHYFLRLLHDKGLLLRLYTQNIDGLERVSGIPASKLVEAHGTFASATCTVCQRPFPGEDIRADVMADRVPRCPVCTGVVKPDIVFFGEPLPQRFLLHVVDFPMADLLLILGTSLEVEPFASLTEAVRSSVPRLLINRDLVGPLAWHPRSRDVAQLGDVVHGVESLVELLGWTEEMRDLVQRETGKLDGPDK
Description: (§4) Sirt3 was expressed in E. coli and purified via Ni-NTA and size exclusion chromatography as described elsewhere, and Sirt5 according to the protocol of Schuetz et al.. […] The protein was bound to the HiTrapQ column in buffer A and eluted in a gradient to buffer A supplemented with 400 mM KCl. Fractions were analyzed by SDS-PAGE, and the Sirt1 fractions were pooled and transferred into buffer A using a NAP column (GE Healthcare).
as §1, §2, §3

Sirt5 = molecular target: T3, Sirt5 (Homo sapiens, UniProt Q9NXA8); assay: Fluor-de-Lys peptide deacetylation assay, Sirt5
T3 construct: Sirt5 residues 34-302; His-tag with linker comprising a TEV protease cleavage site (N); made in house
T3 sequence (Q9NXA8 34-302): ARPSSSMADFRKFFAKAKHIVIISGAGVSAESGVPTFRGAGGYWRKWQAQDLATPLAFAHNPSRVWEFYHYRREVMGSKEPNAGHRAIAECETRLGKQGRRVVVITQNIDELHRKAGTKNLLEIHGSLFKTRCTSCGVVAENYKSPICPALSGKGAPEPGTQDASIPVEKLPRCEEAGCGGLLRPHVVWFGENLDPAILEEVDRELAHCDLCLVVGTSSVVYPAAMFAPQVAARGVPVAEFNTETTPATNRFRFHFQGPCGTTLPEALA
Description: as §4, §1, §2, §3

Sirt6 = molecular target: T4, Sirt6 (Homo sapiens, UniProt Q8N6T7); assay: Fluor-de-Lys peptide deacetylation assay, Sirt6
T4 construct: Sirt6 residues 13-308; His-tag with linker comprising a TEV protease cleavage site (N, cleaved yes); made in house; host or cells: E. coli Rosetta2
Description: as §1, §2, §3

[1] = 100 μM compound, 0.1 mM FdL-2 peptide, 0.5 mM NAD+
[2] = 100 μM compound, 0.1 mM FdL-1 peptide, 0.5 mM NAD+

T4 sequence (Q8N6T7 13-308): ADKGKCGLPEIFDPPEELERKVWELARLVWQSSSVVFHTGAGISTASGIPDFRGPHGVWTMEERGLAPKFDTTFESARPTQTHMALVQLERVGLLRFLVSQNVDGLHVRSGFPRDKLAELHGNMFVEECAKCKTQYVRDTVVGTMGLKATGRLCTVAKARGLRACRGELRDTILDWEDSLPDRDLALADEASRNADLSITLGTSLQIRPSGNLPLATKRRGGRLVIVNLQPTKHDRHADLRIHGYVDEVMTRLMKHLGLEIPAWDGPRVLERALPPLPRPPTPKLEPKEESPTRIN

| Compound | Effect on the activity of Sirt2 (Sirt2; [1]) | Effect on the activity of Sirt3 (Sirt3; [1]) | Effect on the activity of Sirt5 (Sirt5; [2]) | Effect on the activity of Sirt6 (Sirt6; [2]) | Effect on the activity of Sirt2 (Sirt2) | Effect on the activity of Sirt3 (Sirt3) | Effect on the activity of Sirt5 (Sirt5) | Effect on the activity of Sirt6 (Sirt6) |
| --- | --- | --- | --- | --- | --- | --- | --- | --- |
| Cc1cc(C)cc(C(=N)c2ccccc2Cc2cccc3ccccc23)c1 [CSC23, (3,5-dimethylphenyl)(2-(1-naphthylmethyl)phenyl)methanimine] | inhibition (significant inhibitory effects (>25% loss of activity)) | --- (no such effect) | --- (no such effect) | --- (no such effect) |  |  |  |  |
| O=c1c2ccccc2c2ccccc2c(=O)n1-c1cc2c3ccccc3ccc2c2ccccc12 [CSC31, 6-(6-chrysenyl)-5H-dibenzo[c,e]azepine-5,7(6H)-dione] |  |  |  |  | --- (key: inhibition: significant inhibitory effects (>25% loss of activity); ---: no such effect) | --- (key: inhibition: significant inhibitory effects (>25% loss of activity); ---: no such effect) | --- (key: inhibition: significant inhibitory effects (>25% loss of activity); ---: no such effect) | --- (key: inhibition: significant inhibitory effects (>25% loss of activity); ---: no such effect) |
| O=C1c2ccccc2C(=O)N1c1ccc(Cc2ccc(N3C(=O)c4ccccc4C3=O)cc2)cc1 [CSC20, 2-(4-(4-(1,3-dioxo-1,3-dihydro-2H-isoindol-2-yl)benzyl)phenyl)-1H-isoindole-1,3(2H)-dione] | --- (no such effect) | --- (no such effect) | --- (no such effect) | --- (no such effect) |  |  |  |  |
| COc1ccc2c(c1)Cc1cc(/N=[N+](\[O-])c3ccc4c(c3)Cc3cc(OC)ccc3-4)ccc1-2 [CSC32, 1-hydroxy-1,2-bis(7-methoxy-9H-fluoren-2-yl)-1^5-diazene] | inhibition (significant inhibitory effects (>25% loss of activity)) | --- (no such effect) | --- (no such effect) | --- (no such effect) |  |  |  |  |
| O=S(=O)(c1ccc2ccccc2c1)N1CCN(S(=O)(=O)c2ccc3ccccc3c2)CC1 [CSC12, 1,4-bis(2-naphthylsulfonyl)piperazine] | --- (no such effect) | --- (no such effect) | --- (no such effect) | --- (no such effect) |  |  |  |  |
| O=S1(=O)C(c2ccccc2)C(N2CCCCC2)C1C1CC2c3ccccc3C1c1ccccc12 (stereo not shown) [CSC33] | --- (no such effect) | --- (no such effect) | activation | activation |  |  |  |  |
| OC1(C(O)(c2ccc(-c3ccccc3)cc2)c2ccc(-c3ccccc3)cc2)CCCCC1 [CSC39, 1-(di[1,1'-biphenyl]-4-yl(hydroxy)methyl)cyclohexanol] | --- (no such effect) | --- (no such effect) | --- (no such effect) | --- (no such effect) |  |  |  |  |
| CN1C[C@H](C(=O)N[C@]2(C)O[C@@]3(O)[C@@H]4CCCN4C(=O)[C@H](Cc4ccccc4)N3C2=O)C=C2c3cccc4[nH]cc(c34)C[C@H]21 [CSC21, 5'-benzyl-12'-hydroxy-2'-methyl-3',6',18-trioxoergotaman, (Ergotamine), reference compound] |  |  |  |  | inhibition (key: inhibition: significant inhibitory effects (>25% loss of activity); ---: no such effect) | --- (key: inhibition: significant inhibitory effects (>25% loss of activity); ---: no such effect) | inhibition (key: inhibition: significant inhibitory effects (>25% loss of activity); ---: no such effect) | inhibition (key: inhibition: significant inhibitory effects (>25% loss of activity); ---: no such effect) |
| Cc1cc(N2CCOCC2)nc2ccc(Cc3ccc4nc(N5CCOCC5)cc(C)c4c3)cc12 [CSC4, 4-methyl-6-((4-methyl-2-(4-morpholinyl)-6-quinolinyl)methyl)-2-(4-morpholinyl)quinoline] | inhibition (significant inhibitory effects (>25% loss of activity)) | --- (no such effect) | --- (no such effect) | --- (no such effect) |  |  |  |  |
| O=C1OC2(c3ccc(O)cc3Oc3cc(O)ccc32)c2c1c(-c1ccccc1)c(-c1ccccc1)c(-c1ccccc1)c2-c1ccccc1 [CSC28] | inhibition (significant inhibitory effects (>25% loss of activity)) | --- (no such effect) | --- (no such effect) | activation |  |  |  |  |
